From article PMC10653080, “Intermolecular Interactions, Solute Descriptors, and Partition Properties of Neutral Per- and Polyfluoroalkyl Substances (PFAS)” (Environmental Science & Technology, 2023)
Where “and” joins values, the source holds several entries; their conditions need not be identical. Equal values may be shown once. Read-outs that look alike come from different tables or passages of the source.

Key:
[1] = PP-LFER solute descriptor determination from GC retention and partition coefficient data; type: physicochemical; conditions: for Solute descriptor S (dipolarity/polarizability parameter): final adjusted value, shared within a PFAS group
Description: The GC columns used were, from low to high polarity, HP-5ms Ultra Inert (poly[5% phenyl/95% methyl]siloxane equivalent; Agilent Technologies, Santa Clara, CA), DB-200 (poly[35% trifluoropropyl/65% methyl]siloxane; Agilent Technologies), DB-225ms (poly[50% cyanopropylphenyl/50% methyl]siloxane equivalent; Agilent Technologies), and SolGel-WAX (polyethylene glycol; Trajan, Ringwood, Australia). Column dimensions were all 30 m × 0.25 mm i.d. with a coating thickness of 0.25 μm.
The method for GC retention time measurements follows that of a previous study.[18] Briefly, a 7890A/5975C GC/MS instrument (Agilent Technologies) equipped with an MPS2 autosampler and CIS4 injector (Gerstel, Mülheim an der Ruhr, Germany) was used for all measurements. For each column, isothermal retention times were measured at four temperatures in the range of 30–120 °C to cover all target compounds. The temperature at the injector and transfer line was fixed at 120 °C. The carrier gas was He at a flow rate of 1.2 mL/min. Compounds were introduced into the GC by injecting either headspace (100–250 μL) above the pure compound or solution in acetone (1 μL). Split injections were performed with a split ratio of 20–250. Column dead time (t0) was determined by injecting air and measuring Ar (m/z 40). From the measured retention time (t), the retention factor (k) was calculated as k = (t–t0)/t0. Measurements with t < t0 + 0.1 min were considered too short and discarded. For each column and temperature, k values were obtained for 29–52 PFAS and 29–48 reference compounds.
The standard procedure for solute descriptor determination was as follows. First, the system parameters in eq 1 were calibrated for each column (or partition system) and temperature by MLR using log k (or log K) data and solute descriptors for reference compounds. Dimethylformamide, 1-pentylamine, dimethylsulfoxide, and dodecamethylcyclohexasiloxane (D6) were removed from the log k data sets, because they frequently appeared as outliers (>3 SD) of the PP-LFER model fit. Reference data sets for hexadecane/water partition coefficients (KHxd/w),[21]Kow,[22] and octanol/air partition coefficients (Koa)[23] were taken from the cited references and amended with data for organosilicon compounds.[24],[25] Similar to PFAS, organosilicon compounds have weak van der Waals interaction properties[9] and it may be beneficial to include them in reference data sets. The solute descriptors for PFAS were then back-calculated by using the calibrated PP-LFER equations. Of the five descriptors, V can be calculated from the molecular structure[26] (note: the fragment value for F from Goss et al.[11] was used), and L was available for the PFAS studied.[18] Thus, the left side of eq 2 was known, and MLR was performed to obtain S, A, and B on the right side. [drawing 2] 2 To determine the three descriptors, a minimum of three k and K data are required for a given PFAS compound. The data used here were: k measured for 60 PFAS in this study, KHxd/w for 21 PFAS,[5]Kow for 12 PFAS (see the Results and Discussion section), and Koa for 3 PFAS.[11]
Key to the accurate determination of the polar interaction descriptors is the availability of K data for partition systems with water as a partition phase because water is a strong H-bond donor and acceptor phase and thus the corresponding K values are sensitive to the H-bonding properties of the solute.[27] In particular, at least one solvent/water or air/water partition coefficient is required to determine B because there is no commonly used GC phase that is a significant H-bond donor. In the data set, KHxd/w is sensitive to both A and B and Kow is sensitive to B. However, KHxd/w and Kow data are not available for all PFAS. To increase the number of PFAS for which descriptors can be determined, the following assumptions were made. […]

[2] = Octanol/water partition coefficient (Kow), shared-headspace method; type: physicochemical; conditions: 25 °C; shared-headspace method (SH)
Experimental: Kow was measured for nine PFAS (Table 2) to supplement the data set for descriptor determination. The nine PFAS were selected based on measurement feasibility and structural diversity. The shared-headspace or batch partition method was used as described previously.[5] Details of the methods are given in SI-1.

[3] = 25 °C, updated in the iterative calculation

Row | Structure (SMILES) | Solute descriptor L (logarithmic hexadecane/air partition coefficient, KHxd/air) [1, 3] | Solute descriptor S (dipolarity/polarizability parameter) [1] | Measured Log Kow, Mean ± SD [2] | Solute descriptor L (logarithmic hexadecane/air partition coefficient, KHxd/air) [1]
1 | FC(F)C(F)(F)C(F)(F)C(F)(F)C(F)(F)C(F)(F)CI [6:1 FTI-7H, 1H,1H,7H-Perfluoroheptyl iodide] | 3.887 and 3.89 | 0.63 and 0.63 ± 0.04 | 4.90 ± 0.01 | 
2 | OCCCC(F)(F)C(F)(F)C(F)(F)F [3:3 FTOH, 4,4,5,5,6,6,6-Heptafluorohexan-1-ol] | 2.710 | 0.53 | 2.46 ± 0.00 | 
3 | OCC(F)(F)C(F)(F)C(F)(F)C(F)(F)C(F)(F)C(F)(F)C(F)(F)F [7:1 FTOH, 1H,1H-Perfluorooctan-1-ol] | 2.715 | 0.30 | 5.01 ± 0.02 | 
4 | FC(F)(F)C(F)(F)C(F)(F)C(F)(F)C(F)(F)C(F)(F)CCI [6:2 FTI, 1H,1H,2H,2H-Perfluorooctyl iodide] | 3.892 | 0.32 |  | 
5 | CC(O)C(F)(F)C(F)(F)C(F)(F)C(F)(F)C(F)(F)F (stereo not drawn) [5:2s FTOH, 1H,1H,1H,2H-Perfluoroheptan-2-ol] | 2.296 | 0.39 and 0.39 ± 0.02 | 3.80 ± 0.03 | 
6 | C=CC(=O)OCCC(F)(F)C(F)(F)C(F)(F)C(F)(F)C(F)(F)C(F)(F)C(F)(F)C(F)(F)F [8:2 FTAC, 1H,1H,2H,2H-Perfluorodecyl acrylate] | 4.661 | 0.54 |  | 
7 | C=C(C)C(=O)OCCC(F)(F)C(F)(F)C(F)(F)C(F)(F)C(F)(F)C(F)(F)F [6:2 FTMAC, 1H,1H,2H,2H-Perfluorooctyl methacrylate] | 4.553 | 0.53 |  | 
8 | FC(F)(F)C(F)(F)C(F)(F)C(F)(F)C(F)(F)C(F)(F)CI [6:1 FTI, 1H,1H-Perfluoroheptyl iodide] | 3.382 and 3.38 | 0.27 and 0.27 ± 0.02 | 5.57 ± 0.01 | 
9 | CNS(=O)(=O)C(F)(F)C(F)(F)C(F)(F)C(F)(F)C(F)(F)C(F)(F)C(F)(F)C(F)(F)F [MeFOSA, N-Methylperfluorooctanesulfonamide] | 4.703 | 0.88 |  | 
10 | CCN(CCO)S(=O)(=O)C(F)(F)C(F)(F)C(F)(F)C(F)(F)C(F)(F)C(F)(F)F [EtFHxSE, N-Ethylperfluorohexanesulfonamidoethanol] | 5.685 | 1.00 |  | 
11 | O=S(=O)(F)C(F)(F)C(F)(F)C(F)(F)C(F)(F)F [PFBSF, Perfluorobutanesulfonyl fluoride] | 1.278 | 0.16 |  | 
12 | CN(CCO)S(=O)(=O)C(F)(F)C(F)(F)C(F)(F)C(F)(F)C(F)(F)C(F)(F)C(F)(F)C(F)(F)F [MeFOSE, N-Methylperfluorooctanesulfonamidoethanol] |  | 1.00 |  | 5.909
13 | C=CC(=O)OCCC(F)(F)C(F)(F)C(F)(F)C(F)(F)C(F)(F)C(F)(F)C(F)(F)C(F)(F)C(F)(F)C(F)(F)F [10:2 FTAC, 1H,1H,2H,2H-Perfluorododecyl acrylate] |  | 0.54 |  | 5.221
14 | FC(F)(F)C(F)(F)C(F)(F)C(F)(F)C(F)(F)C(F)(F)C(F)(F)C(F)(F)CCI [8:2 FTI, 1H,1H,2H,2H-Perfluorodecyl iodide] | 4.455 | 0.32 |  | 
15 | C=CC(F)(F)C(F)(F)C(F)(F)C(F)(F)C(F)(F)C(F)(F)C(F)(F)C(F)(F)C=C [1,8-DVPFO, 1,8-Divinylperfluorooctane] | 3.927 | 0.44 |  | 
16 | FC(F)(F)C(F)(F)C(F)(F)C(F)(F)C(F)(F)C(F)(F)C(F)(F)C(F)(F)C(F)(F)F [PFN, Perfluorononane] | 1.571 | -0.19 |  | 
17 | OCc1ccc(CCC(F)(F)C(F)(F)C(F)(F)C(F)(F)C(F)(F)C(F)(F)F)cc1 [6:2 FTBnOH, 4-(1H,1H,2H,2H-Perfluorooctyl)benzyl alcohol] | 6.656 | 0.75 |  | 
18 | C=CC(F)(F)C(F)(F)C(F)(F)C(F)(F)F [4:2 FTO, 1H,1H,2H-Perfluoro-1-hexene] | 1.451 | 0.11 |  | 
19 | C=CC(=O)OCCC(F)(F)C(F)(F)C(F)(F)C(F)(F)C(F)(F)C(F)(F)F [6:2 FTAC, 1H,1H,2H,2H-Perfluorooctyl acrylate] | 4.098 | 0.54 |  | 
20 | C=C(C)C(=O)OCCC(F)(F)C(F)(F)C(F)(F)C(F)(F)C(F)(F)C(F)(F)C(F)(F)C(F)(F)F [8:2 FTMAC, 1H,1H,2H,2H-Perfluorodecyl methacrylate] |  | 0.53 |  | 5.115
21 | FC(F)(F)C(F)(F)C(F)(F)N(C(F)(F)C(F)(F)C(F)(F)F)C(F)(F)C(F)(F)C(F)(F)F [PFTPrA, Perfluorotripropyl amine] | 1.521 | -0.26 |  | 
22 | OCC(F)(F)C(F)(F)C(F)(F)F [3:1 FTOH, 1H,1H-Perfluorobutan-1-ol] | 1.542 | 0.30 |  | 
23 | C=CC(F)(F)C(F)(F)C(F)(F)C(F)(F)C(F)(F)C(F)(F)C(F)(F)C(F)(F)C(F)(F)C(F)(F)F [10:2 FTO, 1H,1H,2H-Perfluoro-1-dodecene] |  | 0.11 |  | 3.031
24 | FC(OC(F)(F)C(F)(OC(F)(F)C(F)(OC(F)(F)C(F)(OC(F)(F)C(F)(OC(F)(F)C(F)(F)C(F)(F)F)C(F)(F)F)C(F)(F)F)C(F)(F)F)C(F)(F)F)C(F)(F)F (stereo not drawn) [FE-E5, 1,1,1,2,4,4,5,7,7,8,10,10,11,13,13,14,16,16,17 ,17,18,18,18-Tricosafluoro-5,8,11,14-tetrakis(trifluoromethyl)-3,6,9,12,15-pentaoxaoctadecane] |  | -0.81 |  | 3.128
25 | CCN(CCO)S(=O)(=O)C(F)(F)C(F)(F)C(F)(F)C(F)(F)C(F)(F)C(F)(F)C(F)(F)C(F)(F)F [EtFOSE, N-Ethylperfluorooctanesulfonamidoethanol] |  | 1.00 |  | 6.253
26 | FC(F)(F)C(F)(F)C(F)(F)C(F)(F)I [PFBI, Perfluorobutyl iodide] | 1.939 | 0.07 |  | 
